# Patent US9840525B2, “Crystal form of tenofovir prodrug, preparation method thereof, and method of use thereof” (Jiangsu Hansoh Pharmaceutical Group Co., Ltd., priority 2014, dated 2017)
# Columns and labels:
# [1] = Stability Study; format: physicochemical; details: for Appearance / Crystal Form / Product Purity: 30° C. ± 2° C./RH 65% ± 5%
# Excerpt: The stability of the new crystal form prepared by the method of Example 1 of the present invention was studied.
# [2] = Determination of Absolute Bioavailability; details: rat, in vivo; rats, intravenous administration and oral administration
# [3] = Flowability Study; format: physicochemical
# Excerpt: The flowability of the new crystal form prepared in Examples 1, 2 and 3 of the present invention was studied.
compound,measurement,setting,value
"CC(C)OC(=O)C(C)(C)N[P@](=O)(CO[C@H](C)Cn1cnc2c(N)ncnc21)Oc1ccccc1.O=C(O)/C=C/C(=O)O [crystal form A, 9-[(R)-2-[[(S)-[[[1-(isopropoxycarbonyl)-1-methyl]ethyl]amino]phenoxyphosphinyl]methoxyl]propyl]adenine fumarate]",Appearance,[1]; 0 month,off-white powder
same,Crystal Form,[1]; 0 month,Crystal form A
same,Product Purity,[1]; 0 month,98.97%
same,Appearance,[1]; 3 months,off-white powder
same,Crystal Form,[1]; 3 months,Crystal form A
same,Product Purity,[1]; 3 months,98.95%
same,Appearance,[1]; 6 months,off-white powder
same,Crystal Form,[1]; 6 months,Crystal form A
same,Product Purity,[1]; 6 months,98.92%
same,Stability,[1]; room temperature,stable at room temperature
same,Chemical degradation in the stability test,[1]; stability test,did not undergo chemical degradation
same,Crystal form transformation in the stability test,[1]; stability test,did not undergo transformation
same,bioavailability,[2],81%
same,Flowability,[3],good flowability
same,Repose Angle,[3]; listed as Example 1,36°
same,Repose Angle,[3]; listed as Example 2,35°
same,Repose Angle,[3]; listed as Example 3,34°
